Data reported in US12539292B2, “BRM targeting compounds and associated methods of use” (Arvinas Operations, Inc., priority 2018, dated 2026).
Where two headings read alike, the source gives them in different places.

Molecular target: T1, BRM (Homo sapiens, UniProt P51531)
T1 construct: In-Cell Western Screen of BRM Degradation in SW1573 Cells; endogenous in cells; host or cells: SW1573
Experiment: In-cell Western screen of BRM degradation in SW1573 cells (Dmax and DC50)
Assay type: cell-based
Summary of the method: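 Overnight compound treatment (18-20 h, final DMSO 0.1%) of SW1573 cells in DMEM with 10% FBS precedes fixation and in-cell Western staining with 800/680 nm dye-labelled secondaries. Plate images give DC50 and maximal degradation.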

[1] = SW1573, % degraded, when tested at the top concentration of between 0.3 and 10 μM, read-out: BRM Dmax (%)
[2] = target protein degradation, read-out: BRM DC50
[3] = BRM degradation, SW1573 cells, read-out: DC50
[4] = BRM degradation, SW1573 cells, read-out: Dmax (% degraded)
[5] = BRM degradation, SW1573 cells, tested at the top concentration of between 0.3 and 10 μM, read-out: Dmax (%) (% degraded)

T1 sequence (P51531 whole entry): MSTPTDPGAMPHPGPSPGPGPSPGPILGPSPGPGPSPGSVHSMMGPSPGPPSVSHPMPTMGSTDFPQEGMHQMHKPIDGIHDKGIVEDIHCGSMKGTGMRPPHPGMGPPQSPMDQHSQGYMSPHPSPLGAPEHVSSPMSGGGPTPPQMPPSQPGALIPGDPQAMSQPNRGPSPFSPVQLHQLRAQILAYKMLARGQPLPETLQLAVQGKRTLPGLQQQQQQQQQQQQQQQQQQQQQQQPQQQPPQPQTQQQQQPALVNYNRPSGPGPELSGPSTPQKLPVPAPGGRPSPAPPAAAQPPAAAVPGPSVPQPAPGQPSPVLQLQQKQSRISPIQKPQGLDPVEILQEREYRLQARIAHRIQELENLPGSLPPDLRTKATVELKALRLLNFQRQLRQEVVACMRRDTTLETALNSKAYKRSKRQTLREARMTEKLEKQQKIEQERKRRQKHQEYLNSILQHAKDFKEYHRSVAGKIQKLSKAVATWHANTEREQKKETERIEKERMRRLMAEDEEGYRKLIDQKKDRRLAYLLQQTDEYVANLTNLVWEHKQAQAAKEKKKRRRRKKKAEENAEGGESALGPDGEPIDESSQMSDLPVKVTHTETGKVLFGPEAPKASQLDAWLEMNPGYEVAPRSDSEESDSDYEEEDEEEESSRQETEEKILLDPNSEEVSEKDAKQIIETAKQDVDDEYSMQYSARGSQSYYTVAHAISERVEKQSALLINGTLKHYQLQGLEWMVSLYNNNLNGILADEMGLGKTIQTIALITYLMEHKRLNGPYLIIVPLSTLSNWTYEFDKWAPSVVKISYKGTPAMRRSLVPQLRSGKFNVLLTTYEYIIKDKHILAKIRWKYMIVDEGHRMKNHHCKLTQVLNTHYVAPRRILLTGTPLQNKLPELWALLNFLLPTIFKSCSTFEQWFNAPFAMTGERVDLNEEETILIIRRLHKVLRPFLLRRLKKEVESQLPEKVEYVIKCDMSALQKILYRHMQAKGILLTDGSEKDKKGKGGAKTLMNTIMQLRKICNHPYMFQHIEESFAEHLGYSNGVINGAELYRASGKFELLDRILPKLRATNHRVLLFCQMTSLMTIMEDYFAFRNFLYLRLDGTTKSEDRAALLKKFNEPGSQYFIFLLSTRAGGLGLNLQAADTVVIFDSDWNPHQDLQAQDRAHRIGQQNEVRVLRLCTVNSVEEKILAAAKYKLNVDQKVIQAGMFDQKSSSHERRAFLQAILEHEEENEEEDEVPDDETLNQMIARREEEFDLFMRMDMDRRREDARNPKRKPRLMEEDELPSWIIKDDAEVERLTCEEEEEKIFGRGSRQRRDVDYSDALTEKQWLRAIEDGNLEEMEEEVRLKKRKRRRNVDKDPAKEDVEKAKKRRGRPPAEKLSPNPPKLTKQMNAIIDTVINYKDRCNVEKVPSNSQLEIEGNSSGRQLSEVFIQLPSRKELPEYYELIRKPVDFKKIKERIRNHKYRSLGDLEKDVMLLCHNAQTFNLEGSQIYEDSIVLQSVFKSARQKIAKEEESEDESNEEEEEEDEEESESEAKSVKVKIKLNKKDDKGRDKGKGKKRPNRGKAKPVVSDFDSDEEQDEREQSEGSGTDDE

Cc1ncsc1-c1ccc([C@H](C)NC(=O)[C@@H]2C[C@@H](O)CN2C(=O)[C@@H](c2cc(OCC#Cc3ncc(O[C@H]4C[C@H](Oc5cc(N6C7CCC6CN(c6cc(-c8ccccc8O)nnc6N)C7)ccn5)C4)cn3)no2)C(C)C)cn1 [compound 400, (2S,4R)-1-((2R)-2-(3-((3-(5-((1r,3R)-3-((4-(3-(3-amino-6-(2-hydroxyphenyl)pyridazin-4-yl)-3,8-diazabicyclo[3.2.1]octan-8-yl)pyridin-2-yl)oxy)cyclobutoxy)pyrimidin-2-yl)prop-2-yn-1-yl)oxy)isoxazol-5-yl)-3-methylbutanoyl)-4-hydroxy-N-((S)-1-(6-(4-methylthiazol-5-yl)pyridin-3-yl)ethyl)pyrrolidine-2-carboxamide]
Dmax [1]: > 75% | DC50 [2]: < 2.5 nM

Cc1ncsc1-c1ccc([C@H](C)NC(=O)[C@@H]2C[C@@H](O)CN2C(=O)[C@@H](c2cc(N3CCC(CN4CCC(O[C@H]5C[C@H](C#C[C@H](C)n6cc(-c7cc(-c8ccccc8O)nnc7N)cn6)C5)CC4)CC3)no2)C(C)C)cc1 [compound 497, (2S,4R)-1-((R)-2-(3-(4-((4-((1S,3r)-3-((S)-3-(4-(3-amino-6-(2-hydroxyphenyl)pyridazin-4-yl)-1H-pyrazol-1-yl)but-1-yn-1-yl)cyclobutoxy)piperidin-1-yl)methyl)piperidin-1-yl)isoxazol-5-yl)-3-methylbutanoyl)-4-hydroxy-N-((S)-1-(4-(4-methylthiazol-5-yl)phenyl)ethyl)pyrrolidine-2-carboxamide]
DC50 (BRM degradation, read-out: BRM DC50): < 2.5 nM | Dmax [1]: > 75%

Cc1ncsc1-c1ccc(CNC(=O)[C@@H]2C[C@@H](O)CN2C(=O)C(c2cc(CCCOCCOCCn3cc(-c4cc(-c5ccccc5O)nnc4N)cn3)no2)C(C)C)cc1 (stereo partly drawn) [compound 22, (2S,4R)-1-(2-(3-(3-(2-(2-(4-(3-amino-6-(2-hydroxyphenyl)pyridazin-4-yl)-1H-pyrazol-1-yl)ethoxy)ethoxy)propyl)isoxazol-5-yl)-3-methylbutanoyl)-4-hydroxy-N-(4-(4-methylthiazol-5-yl)benzyl)pyrrolidine-2-carboxamide]
DC50 [3]: > 30 nM | Dmax (BRM degradation, SW1573 cells, when tested at the top concentration of between 0.3 and 10 μM, read-out: Dmax (%) (% degraded)): > 75%

Cc1nccn1-c1ccc([C@H](C)NC(=O)[C@@H]2C[C@@H](O)CN2C(=O)[C@@H](c2cc(N3CCN(CCN4CCC(O[C@H]5C[C@H](Oc6cc(N7C8CCC7CN(c7cc(-c9ccccc9O)nnc7N)C8)ccn6)C5)CC4)CC3)no2)C(C)C)cc1 [compound 413, (2S,4R)-1-((2R)-2-(3-(4-(2-(4-((1r,3r)-3-((4-(3-(3-amino-6-(2-hydroxyphenyl)pyridazin-4-yl)-3,8-diazabicyclo[3.2.1]octan-8-yl)pyridin-2-yl)oxy)cyclobutoxy)piperidin-1-yl)ethyl)piperazin-1-yl)isoxazol-5-yl)-3-methylbutanoyl)-4-hydroxy-N-((S)-1-(4-(2-methyl-1H-imidazol-1-yl)phenyl)ethyl)pyrrolidine-2-carboxamide]
Dmax [1]: > 75% | DC50 (degradation of BRM, read-out: BRM DC50): < 2.5 nM

Cc1ncn(C)c1-c1ccc([C@H](C)NC(=O)[C@@H]2C[C@@H](O)CN2C(=O)[C@@H](c2cc(OCCN3CCC(O[C@H]4C[C@H](Oc5cc(N6C7CCC6CN(c6cc(-c8ccccc8O)nnc6N)C7)ccn5)C4)CC3)no2)C(C)C)cc1 [compound 366, (2S,4R)-1-((2R)-2-(3-(2-(4-((1r,3R)-3-((4-(3-(3-amino-6-(2-hydroxyphenyl)pyridazin-4-yl)-3,8-diazabicyclo[3.2.1]octan-8-yl)pyridin-2-yl)oxy)cyclobutoxy)piperidin-1-yl)ethoxy)isoxazol-5-yl)-3-methylbutanoyl)-N-((S)-1-(4-(1,4-dimethyl-1H-imidazol-5-yl)phenyl)ethyl)-4-hydroxypyrrolidine-2-carboxamide]
Dmax [1]: > 75% | DC50 [2]: 2.5 to 10 nM

CC[C@H](NC(=O)[C@@H]1C[C@@H](O)CN1C(=O)[C@@H](c1cc(N2CCC(CN3CCC(O[C@H]4C[C@H](Oc5cc(N6C7CCC6CN(c6cc(-c8ccccc8O)nnc6N)C7)ccn5)C4)CC3)CC2)no1)C(C)C)c1ccc(-c2scnc2C)cc1 [compound 654, (2S,4R)-1-((2R)-2-(3-(4-((4-((1r,3r)-3-((4-(3-(3-amino-6-(2-hydroxyphenyl)pyridazin-4-yl)-3,8-diazabicyclo[3.2.1]octan-8-yl)pyridin-2-yl)oxy)cyclobutoxy)piperidin-1-yl)methyl)piperidin-1-yl)isoxazol-5-yl)-3-methylbutanoyl)-4-hydroxy-N-((S)-1-(4-(4-methylthiazol-5-yl)phenyl)propyl)pyrrolidine-2-carboxamide]
DC50 [3]: < 2.5 nM | Dmax [4]: > 75%

Cc1ncsc1-c1ccc([C@@H](NC(=O)[C@@H]2C[C@@H](O)CN2C(=O)[C@@H](c2cc(OCCN3CCN(CCOc4cc(N5C6CCC5CN(c5cc(-c7ccccc7O)nnc5N)C6)ccn4)CC3)no2)C(C)C)C(=O)N(C)C2CCC2)cc1 [compound 246, (2S,4R)-1-((2R)-2-(3-(2-(4-(2-((4-(3-(3-amino-6-(2-hydroxyphenyl)pyridazin-4-yl)-3,8-diazabicyclo[3.2.1]octan-8-yl)pyridin-2-yl)oxy)ethyl)piperazin-1-yl)ethoxy)isoxazol-5-yl)-3-methylbutanoyl)-N-((R)-2-(cyclobutyl(methyl)amino)-1-(4-(4-methylthiazol-5-yl)phenyl)-2-oxoethyl)-4-hydroxypyrrolidine-2-carboxamide]
DC50 [3]: < 2.5 nM | Dmax [5]: > 75%

Cc1ncsc1-c1ccc([C@H](C)NC(=O)[C@@H]2C[C@@H](O)CN2C(=O)[C@H](c2cc(OCCN3CCN(CCOc4cc(N5C6CCC5CN(c5cc(-c7ccccc7O)nnc5N)C6)ccn4)CC3)no2)C(C)C)cn1 [compound 160, (2S,4R)-1-((2S)-2-(3-(2-(4-(2-((4-(3-(3-amino-6-(2-hydroxyphenyl)pyridazin-4-yl)-3,8-diazabicyclo[3.2.1]octan-8-yl)pyridin-2-yl)oxy)ethyl)piperazin-1-yl)ethoxy)isoxazol-5-yl)-3-methylbutanoyl)-4-hydroxy-N-((S)-1-(6-(4-methylthiazol-5-yl)pyridin-3-yl)ethyl)pyrrolidine-2-carboxamide]
DC50 [3]: > 30 nM | Dmax [5]: > 75%

Cc1ncsc1-c1ccc([C@H](COCC2CCOCC2)NC(=O)[C@@H]2C[C@@H](O)CN2C(=O)[C@H](c2cc(OCCN3CCN(CCOc4cc(N5C6CCC5CN(c5cc(-c7ccccc7O)nnc5N)C6)ccn4)CC3)no2)C(C)C)cc1 [compound 262, (2S,4R)-1-((2S)-2-(3-(2-(4-(2-((4-(3-(3-amino-6-(2-hydroxyphenyl)pyridazin-4-yl)-3,8-diazabicyclo[3.2.1]octan-8-yl)pyridin-2-yl)oxy)ethyl)piperazin-1-yl)ethoxy)isoxazol-5-yl)-3-methylbutanoyl)-4-hydroxy-N-((R)-1-(4-(4-methylthiazol-5-yl)phenyl)-2-((tetrahydro-2H-pyran-4-yl)methoxy)ethyl)pyrrolidine-2-carboxamide]
DC50 [3]: > 30 nM

Cc1ncsc1-c1ccc([C@H](C)NC(=O)[C@@H]2C[C@@H](O)CN2C(=O)[C@@H](c2cc(OCC[C@H]3CCN(C[C@H]4C[C@H](Oc5cc(N6C7CCC6CN(c6cc(-c8ccccc8O)nnc6N)C7)ccn5)C4)[C@@H](C)[C@H]3C)no2)C(C)C)cc1 (single isomer, unassigned) [compound 586]
Dmax (BRM degradation, SW1573 cells, Table 2D, read-out: **Dmax (%) (% degraded)): > 75% | DC50 (BRM degradation, SW1573 cells, Table 2D, read-out: *DC50): < 2.5 nM

Cc1ncsc1-c1ccc([C@H](C)NC(=O)[C@@H]2C[C@@H](O)CN2C(=O)[C@H](c2cc(OCC#Cc3ccc(O[C@H]4C[C@H](Oc5cc(N6C7CCC6CN(c6cc(-c8ccccc8O)nnc6N)C7)ccn5)C4)cn3)no2)C(C)C)cn1 [compound 236, (2S,4R)-1-((2S)-2-(3-((3-(5-((1r,3S)-3-((4-(3-(3-amino-6-(2-hydroxyphenyl)pyridazin-4-yl)-3,8-diazabicyclo[3.2.1]octan-8-yl)pyridin-2-yl)oxy)cyclobutoxy)pyridin-2-yl)prop-2-yn-1-yl)oxy)isoxazol-5-yl)-3-methylbutanoyl)-4-hydroxy-N-((S)-1-(6-(4-methylthiazol-5-yl)pyridin-3-yl)ethyl)pyrrolidine-2-carboxamide]
DC50 [3]: > 30 nM | Dmax [5]: > 75%

Cc1ncsc1-c1ccc([C@H](C)NC(=O)[C@@H]2C[C@@H](O)CN2C(=O)[C@@H](c2cc(OCCN3CC[C@@H](O[C@H]4C[C@H](Oc5cc(N6C7CCC6CN(c6cc(-c8ccccc8O)nnc6N)C7)ccn5)C4)C[C@@H]3C)no2)C(C)C)cc1 [compound 627, (2S,4R)-1-((2R)-2-(3-(2-((2S,4R)-4-((1r,3R)-3-((4-(3-(3-amino-6-(2-hydroxyphenyl)pyridazin-4-yl)-3,8-diazabicyclo[3.2.1]octan-8-yl)pyridin-2-yl)oxy)cyclobutoxy)-2-methylpiperidin-1-yl)ethoxy)isoxazol-5-yl)-3-methylbutanoyl)-4-hydroxy-N-((S)-1-(4-(4-methylthiazol-5-yl)phenyl)ethyl)pyrrolidine-2-carboxamide]
DC50 [3]: < 2.5 nM | Dmax [4]: > 75%

Cc1ncsc1-c1ccc([C@H](C)NC(=O)[C@@H]2C[C@@H](O)CN2C(=O)[C@H](c2cc(N3CCC(OC4CCN(C[C@H]5C[C@H](Oc6cc(N7C8CCC7CN(c7cc(-c9ccccc9O)nnc7N)C8)ccn6)C5)CC4)CC3)no2)C(C)C)cc1 [compound 469, (2S,4R)-1-((2S)-2-(3-(4-((1-(((1r,3r)-3-((4-(3-(3-amino-6-(2-hydroxyphenyl)pyridazin-4-yl)-3,8-diazabicyclo[3.2.1]octan-8-yl)pyridin-2-yl)oxy)cyclobutyl)methyl)piperidin-4-yl)oxy)piperidin-1-yl)isoxazol-5-yl)-3-methylbutanoyl)-4-hydroxy-N-((S)-1-(4-(4-methylthiazol-5-yl)phenyl)ethyl)pyrrolidine-2-carboxamide]
DC50 [2]: > 30 nM
